Results reported in US4579861A, “Aryloxypropanolamine derivatives, pharmaceutical compositions and adrenegic thereof” (Pierrel S.p.A., priority 1983, dated 1986).
Where a name gives a salt, the structure may show the parent alone. Read-outs that look alike come from different tables or passages of the source.

Key:
β1 (guinea pig atria) = biological target: T1, β1 (guinea pig atria) (Cavia porcellus, UniProt H0W3H1); assay: In vitro β-blocking activity, guinea pig atria stimulated with isopropylnoradrenaline (INA); format: cell-based, guinea pig (Hartley albino); settings: INA 10^-8 M, 32° C.
T1 construct: The atria and the trachea have been suspended respectively in Ringer oxygenated solution; from tissue; host or cells: isolated atria of Hartley albino guinea pigs
T1 sequence (H0W3H1 1-470): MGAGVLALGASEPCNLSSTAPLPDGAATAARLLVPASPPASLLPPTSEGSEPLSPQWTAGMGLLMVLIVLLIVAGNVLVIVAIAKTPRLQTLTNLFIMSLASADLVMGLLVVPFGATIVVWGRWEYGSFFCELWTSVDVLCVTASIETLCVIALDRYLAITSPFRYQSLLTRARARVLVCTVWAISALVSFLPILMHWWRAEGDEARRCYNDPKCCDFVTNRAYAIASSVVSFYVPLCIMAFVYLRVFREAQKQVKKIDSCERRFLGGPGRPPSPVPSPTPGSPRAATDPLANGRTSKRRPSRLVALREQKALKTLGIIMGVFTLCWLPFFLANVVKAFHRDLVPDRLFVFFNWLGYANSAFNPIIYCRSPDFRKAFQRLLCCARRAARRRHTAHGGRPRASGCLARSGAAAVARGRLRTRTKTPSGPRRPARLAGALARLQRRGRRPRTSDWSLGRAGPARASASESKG
Protocol: (§1) Hartley albino guinea pigs of 450 g average weight were used. The atria and the trachea have been suspended respectively in Ringer oxygenated solution at 32° C., and in Krebs carboxygenated solution medicated with pilocarpine, at 37° C.
(§2) After 30' minute stabilization the samples were stimulated with a single submaximal concentration of isopropylnoradrenaline (INA) (10^-8 M for the atria and 10^-7 M for the trachea) in the absence or presence of different antagonist's concentrations.
(§3) The percent inhibitions of the chronotropic and positive inotropic effect (atria) and of relaxation (trachea) were evaluated and the IC50 values were calculated therefrom.

β2 (guinea pig trachea) = β2 (guinea pig trachea) (Cavia porcellus, UniProt Q8K4Z4); assay: cell-based; set-up: species or system guinea pig (Hartley albino)
Chain of β2 (guinea pig trachea) (Q8K4Z4 whole entry): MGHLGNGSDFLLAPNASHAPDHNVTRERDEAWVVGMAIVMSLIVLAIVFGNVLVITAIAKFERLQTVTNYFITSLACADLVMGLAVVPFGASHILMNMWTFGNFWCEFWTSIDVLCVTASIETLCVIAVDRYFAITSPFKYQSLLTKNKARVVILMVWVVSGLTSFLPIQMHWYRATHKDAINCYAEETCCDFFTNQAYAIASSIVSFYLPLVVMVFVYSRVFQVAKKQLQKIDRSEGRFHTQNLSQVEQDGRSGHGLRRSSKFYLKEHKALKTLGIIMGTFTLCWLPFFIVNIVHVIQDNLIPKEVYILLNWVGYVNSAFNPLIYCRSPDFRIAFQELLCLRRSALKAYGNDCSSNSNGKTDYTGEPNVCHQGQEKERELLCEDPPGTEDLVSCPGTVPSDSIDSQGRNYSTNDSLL
Protocol: as §1, §2, §3

in vivo = settings: mouse, iv
Protocol: Charles River male CD1 mice, weighing 25 g were used. The administration volume of the compounds, solubilized in H2 O and exceptionally in dimethylsulfoxide, was 0.02 ml/10 g of body weight.

β1 = assay: β-blocking activity on conscious rats, i.v. (inhibition of INA positive chronotropic effect); format: in vivo, rat (male Wistar); settings: 2 rats each compound
Description: The arterial pressure (AP) and heart rate (HR) were graphically recorded on a type R. multichannel Beckman poligraph.

β2 receptors = assay: Inhibition of 3H-DHA (dihydroalprenolol) binding to β2 receptors; settings: for affinity for the β2 receptors compared with β1 receptors: 3H-DHA binding, in words; for IC50: read-out: IC50 β2 (inhibition of H^3-DHA binding), [3H]dihydroalprenolol binding, β2
β1 receptors = assay: Inhibition of 3H-DHA (dihydroalprenolol) binding to β1 receptors; settings: for cardioselectivity degree compared with reference compounds: 3H-DHA binding, in words; for IC50: read-out: IC50 β1 (inhibition of H^3-DHA binding), [3H]dihydroalprenolol binding, β1
[1] = β-Blocking activity in vitro IC50, Atria chronotropism × 10^-7, guinea pig atria, β1, chronotropic effect
[2] = β-Blocking activity in vitro IC50, Atria inotropism × 10^-7, guinea pig atria, β1, positive inotropic effect
[3] = guinea pig trachea, β2, relaxation, INA 10^-7 M, 37° C., pilocarpine, read-out: β-Blocking activity in vitro IC50, Trachea β2 × 10^-7
[4] = guinea pig atria, β1, chronotropic effect, read-out: β-Blocking activity in vitro IC50, Atria chronotropism × 10^-7
[5] = guinea pig atria, β1, positive inotropic effect, read-out: β-Blocking activity in vitro IC50, Atria inotropism × 10^-7
[6] = 3 mg/kg i.v. (Ia-c), could be undervalued by reflex tachycardia
[7] = read-out: β-Blocking activity in vitro IC50, Trachea β2 × 10^-7
[8] = 1 mg/kg i.v., could be undervalued by reflex tachycardia

SMILES | IC50 (β2 (guinea pig trachea); [3]) | LD50 at 168 h (in vivo) | IC50 (β1 (guinea pig atria); [4]) | IC50 (β1 (guinea pig atria); [5]) | Vivo inhib. %, conscious rat i.v., chronotropism β1 (β1; [8]) | also measured
CC(C)NCC(O)COc1ccc(CC(N)=O)cc1 (stereo not shown) [Atenolol, atenolol, reference compound] | – | – | – | – | – | IC50 (β1 (guinea pig atria); [1]): 1500 nM; IC50 (β1 (guinea pig atria); [2]): 1700 nM
O=C1CN(c2ccccc2)C(=O)N1CCNCC(O)COc1ccccc1 (stereo not shown) [Ia, 1-Phenyl-3-{[2-(3-phenoxy-2-hydroxy)propylamino]ethyl}hydantoin hydrochloride] | 6700 nM | 96 mg/kg | 140 nM | 430 nM | – | Vivo inhib. %, conscious rat i.v., chronotropism β1 (β1; [6]): 59%
Cc1cccc(OCC(O)CNCCN2C(=O)CN(c3ccccc3)C2=O)c1 (stereo not shown) [Ib] | 6200 nM | 69 mg/kg | 430 nM | 940 nM | – | Vivo inhib. %, conscious rat i.v., chronotropism β1 (β1; [6]): 50%
N#Cc1ccccc1OC[C@H](O)CNCCN1C(=O)CN(c2ccccc2)C1=O [Ic(R), (R)-(+)-1-Phenyl-3-{2-[3-(2-cyanophenoxy)-2-hydroxypropyl]aminoethyl}hydantoin hydrochloride] | – | – | 1400 nM | 3400 nM | – | IC50 (β2 (guinea pig trachea); [7]): > 100000 nM
N#Cc1ccccc1OC[C@@H](O)CNCCN1C(=O)CN(c2ccccc2)C1=O [Ic(S), (S)-(-)-1-Phenyl-3-{2-[3-(2-cyanophenoxy)-2-hydroxypropyl]aminoethyl}hydantoin hydrochloride] | – | – | 29 nM | 60 nM | – | IC50 (β2 (guinea pig trachea); [7]): 600 nM
N#Cc1ccccc1OCC(O)CNCCN1C(=O)CN(c2ccccc2)C1=O (stereo not shown) [Ic] | 2000 nM | 99 mg/kg | 120 nM | 90 nM | – | Vivo inhib. %, conscious rat i.v., chronotropism β1 (β1; [6]): 67%; affinity for the β2 receptors compared with β1 receptors (β2 receptors): remarkably lower than the one shown for β1 receptors; IC50 (β2 receptors): 9300 nM; cardioselectivity degree compared with reference compounds (β1 receptors): remarkably higher cardioselectivity degree than that of the reference compounds; IC50 (β1 receptors): 6.7 nM
O=C1CN(c2ccc(Cl)cc2)C(=O)N1CCNCC(O)COc1ccccc1 (stereo not shown) [Id] | > 10000 nM | 45 mg/kg | 770 nM | 1200 nM | 18% | –
Cc1cccc(OCC(O)CNCCN2C(=O)CN(c3ccc(Cl)cc3)C2=O)c1 (stereo not shown) [Ie] | > 10000 nM | 25 mg/kg | > 10000 nM | > 10000 nM | 19% | –
N#Cc1ccccc1OCC(O)CNCCN1C(=O)CN(c2ccc(Cl)cc2)C1=O (stereo not shown) [If] | 6000 nM | 70 mg/kg | 210 nM | 270 nM | 68% | –
COc1ccc(N2CC(=O)N(CCNCC(O)COc3ccccc3)C2=O)cc1OC (stereo not shown) [Ig] | 1500 nM | 126 mg/kg | 230 nM | 210 nM | 53% | –
COc1ccc(N2CC(=O)N(CCNCC(O)COc3cccc(C)c3)C2=O)cc1OC (stereo not shown) [Ih] | 1100 nM | 111 mg/kg | 460 nM | 890 nM | 58% | –
COc1ccc(N2CC(=O)N(CCNCC(O)COc3ccccc3C#N)C2=O)cc1OC (stereo not shown) [Ii] | 430 nM | 137 mg/kg | 82 nM | 190 nM | 70% | affinity for the β2 receptors compared with β1 receptors (β2 receptors): remarkably lower than the one shown for β1 receptors; IC50 (β2 receptors): 400 nM; cardioselectivity degree compared with reference compounds (β1 receptors): remarkably higher cardioselectivity degree than that of the reference compounds; IC50 (β1 receptors): 9.2 nM
COc1ccc(N2CC(=O)N(CCNCC(O)COc3ccccc3C#N)C2=O)cc1.Cl (stereo not shown) [Il, 1-(4-Methoxyphenyl)-3-{2-[3-(2-cyanophenoxy)-2-hydroxypropyl]aminoethyl}hydantoin hydrochloride] | – | 135 mg/kg | 45 nM | 96 nM | – | IC50 (β2 (guinea pig trachea); [7]): 360 nM
Cl.N#Cc1ccccc1OCC(O)CNCCN1C(=O)CN(c2ccc3c(c2)OCO3)C1=O (stereo not shown) [Im, 1-(3,4-Methylendioxyphenyl)-3-{2-[3-(2-cyanophenoxy)-2-hydroxypropyl]aminoethyl}hydantoin hydrochloride] | – | 132 mg/kg | 41 nM | 63 nM | – | IC50 (β2 (guinea pig trachea); [7]): 780 nM
COc1cccc(N2CC(=O)N(CCNCC(O)COc3ccccc3C#N)C2=O)c1 (stereo not shown) [In, 1-(3-Methoxyphenyl)-3-{2-[3-(2-cyanophenoxy)-2-hydroxypropyl]-aminoethyl}hydantoin hydrochloride] | 640 nM | 120 mg/kg | 76 nM | 130 nM | – | –
Cc1ccccc1OCC(O)CNCCN1C(=O)CN(c2ccccc2)C1=O (stereo not shown) [Io] | 1600 nM | 60 mg/kg | 115 nM | 150 nM | – | –
O=C1CN(c2ccccc2)C(=O)N1CCNCC(O)COc1ccccc1Cl (stereo not shown) [Ip] | 600 nM | 80 mg/kg | 54 nM | 115 nM | – | –
CC(CCc1ccccc1)NCC(O)c1ccc(O)c(C(N)=O)c1 (stereo not shown) [Labetalol, labetalol, reference compound] | – | – | – | – | 82% | IC50 (β2 (guinea pig trachea)): 1100 nM; IC50 (β1 (guinea pig atria); [1]): 240 nM; IC50 (β1 (guinea pig atria); [2]): 210 nM
COCCc1ccc(OCC(O)CNC(C)C)cc1 (stereo not shown) [Metoprolol, metoprolol, reference compound] | – | 103 mg/kg | – | – | 60% | –
CC(C)NCC(O)COc1cccc2ccccc12 (stereo not shown) [Propranolol, propranolol, reference compound] | – | – | – | – | – | Vivo inhib. %, conscious rat i.v., chronotropism β1 (β1; 0.1 mg/kg i.v. (propranolol)): 73%
